pEC50, pIC50: −log10 of the molar value. Read-outs that look alike come from different tables or passages of the source.
Tests used:
[1] = test system: Nrf2/ARE (ARE-bla HepG2 cells); assay: ARE β-lactamase reporter gene assay; assay type: cell-based, human
HepG2 cells [2] = assay: ROS-Glo hydrogen peroxide (ROS) assay; assay type: cell-based, human
rat primary hepatocytes [3] = test system: rat primary hepatocytes
HepG2 cells [4] = test system: HepG2 cells
[5] = test system: Caenorhabditis elegans (Bristol N2); details: in vivo
[6] = test system: Caenorhabditis elegans (Bristol N2); assay: C. elegans larval development and growth assay; details: in vivo
hNSC = assay: MMP assay in human neural stem cells (hNSC); assay type: cell-based
HepG2 cells [7] = assay: Oxygen consumption, Seahorse XF24 analyzer; assay type: cell-based, human
[8] = test system: isolated rat liver mitochondria; assay: Oxygen consumption, Clark-type oxygen electrode; assay type: biochemical
[9] = test system: p53 (p53-bla HCT-116 cells); assay: p53 β-lactamase reporter gene assay; assay type: cell-based, human
[10] = test system: Caenorhabditis elegans strain PE255; details: in vivo
HepG2 cells [11] = assay: Intracellular ATP content (cell viability) assay; assay type: cell-based, human
rat primary hepatocytes [12] = assay: MMP assay in rat primary hepatocytes; details: read-out: Rat hepatocytes IC50 (MMP)
[13] = test system: Caenorhabditis elegans strain PE255; assay: In vivo C. elegans ATP status assay; details: in vivo
[14] = test system: HeLa cells expressing YFP-Parkin; assay: Parkin translocation assay; assay type: cell-based, human

For `N#CC(C#N)=NNc1ccc(OC(F)(F)F)cc1` [FCCP, carbonyl cyamide 4-(trifluoromethoxy)phenylhydrazone, reference compound], the “ARE (HepG2) EC50” value [1] was “Inactive”, the “ROS (HepG2) (efficacy)” value (HepG2 cells [2]) was 2.49±0.45 ( 35.9±5.66 ) % and the pEC50 (HepG2 cells [2]; read-out: ROS (HepG2) EC50) was 5.60. For the same molecule, the “Rat hepatocytes (efficacy) (MMP)” value (rat primary hepatocytes [3]) was 0.35±0.06 ( −95.4±4.65 ) %, the “HepG2 (efficacy) Galactose (MMP)” value (HepG2 cells [4]) was 1.12±0.33 ( −94.6±1.13 ) % and the “HepG2 (efficacy) Glucose (MMP)” value (HepG2 cells [4]) was 1.05±0.38 ( −95.8±2.94 ) %. For the same molecule, the pIC50 (HepG2 cells [4]; read-out: HepG2 IC50 Galactose (MMP)) was 5.95, the pIC50 (HepG2 cells [4]; read-out: HepG2 IC50 Glucose (MMP)) was 5.98 and the “LEC (lowest effect concentration), larval growth assay” value [5] was under 10 µM. The “LEC EXT: lowest effect concentration for extinction, a measure of nematode size” value [6] was 2.5 µM, the “hNSC (efficacy) (MMP)” value (hNSC) was 0.27±0.08 ( −94.2±2.36 ) % and the pIC50 (hNSC; read-out: hNSC IC50 (MMP)) was 6.57. For the same molecule, the “Activity in oxygen consumption” value (HepG2 cells [7]) was “Uncoupler+inhibitor”, the “Potential Mechanism” value [8] was “Uncoupler at lower concentrations (0.032-0.16 µM), and Uncoupler + inhibitor at high concentrations (0.8 - 100 µM)” and the “concentration at which RCR began to decrease” value [8] was 32 nM. For the same molecule, the “concentration at which RCR reached unity (complete uncoupling)” value [8] was 4 µM, the “glutamate/malate-driven state 4 respiration, maximal increase over the baseline level” value [8] was “approximately 4 fold” and the “succinate-driven state 4 respiration, maximal response over the baseline level” value [8] was 2.6 fold. The “uncoupler effect at (concentration) in the oxygen consumption assay” value [8] was 0.032 µM, the “I-ADP, % of control (O2 consumption rate)” value ([8]; 0.0064 µM) was 94 (46.6) % of control and the “I-sub, % of control (O2 consumption rate)” value ([8]; 0.0064 µM) was 108 (14.9) % of control. For the same molecule, the “II-ADP, % of control (O2 consumption rate)” value (“II-ADP, % of control” below) ([8]; 0.0064 µM) was 96 (85.4) % of control, the “II-sub, % of control (O2 consumption rate)” value (“II-sub, % of control” below) ([8]; 0.0064 µM) was 90 (24.4) % of control and the “I-ADP, % of control (O2 consumption rate)” value ([8]; 0.032 µM) was 100 (49.4) % of control. The “I-sub, % of control (O2 consumption rate)” value ([8]; 0.032 µM) was 131 (18.2) % of control, the “II-ADP, % of control” value ([8]; 0.032 µM) was 96 (85.4) % of control and the “II-sub, % of control” value ([8]; 0.032 µM) was 126 (34.2) % of control. The “I-ADP, % of control (O2 consumption rate)” value ([8]; 0.16 µM) was 115 (56.7) % of control, the “I-sub, % of control (O2 consumption rate)” value ([8]; 0.16 µM) was 251 (34.8) % of control and the “II-ADP, % of control” value ([8]; 0.16 µM) was 97 (86.6) % of control. For the same molecule, the “II-sub, % of control” value ([8]; 0.16 µM) was 260 (70.2) % of control, the “I-ADP, % of control (O2 consumption rate)” value ([8]; 0.8 µM) was 125 (61.6) % of control and the “I-sub, % of control (O2 consumption rate)” value ([8]; 0.8 µM) was 386 (53.5) % of control. The “II-ADP, % of control” value ([8]; 0.8 µM) was 67 (59.7) % of control, the “II-sub, % of control” value ([8]; 0.8 µM) was 247 (66.9) % of control and the “I-ADP, % of control (O2 consumption rate)” value ([8]; 4 µM) was 74 (36.5) % of control. For the same molecule, the “I-sub, % of control (O2 consumption rate)” value ([8]; 4 µM) was 264 (36.5) % of control, the “II-ADP, % of control” value ([8]; 4 µM) was 44 (39.6) % of control and the “II-sub, % of control” value ([8]; 4 µM) was 189 (51.0) % of control. For the same molecule, the “I-ADP, % of control (O2 consumption rate)” value ([8]; 20 µM) was 73 (36.0) % of control, the “I-sub, % of control (O2 consumption rate)” value ([8]; 20 µM) was 278 (38.5) % of control and the “II-ADP, % of control” value ([8]; 20 µM) was 39 (34.6) % of control. For the same molecule, the “II-sub, % of control” value ([8]; 20 µM) was 165 (44.6) % of control, the “I-ADP, % of control (O2 consumption rate)” value ([8]; 100 µM) was 86 (39.1) % of control and the “I-sub, % of control (O2 consumption rate)” value ([8]; 100 µM) was 263 (40.0) % of control. For the same molecule, the “II-ADP, % of control” value ([8]; 100 µM) was 38 (27.2) % of control, the “II-sub, % of control” value ([8]; 100 µM) was 98 (30.8) % of control and the “p53 (HCT-116) EC50” value [9] was “Inactive”. For the same molecule, the “LEC (lowest effect concentration), ATP assay” value [10] was under 10 µM, the “ATP (HepG2, galactose) (efficacy)” value (HepG2 cells [11]) was 4.25±0.97 ( −91.9±3.75 ) % and the “ATP (HepG2, glucose) (efficacy)” value (HepG2 cells [11]) was 2.90±0.72 ( −90.1±9.46 ) %. For the same molecule, the pIC50 (HepG2 cells [11]; read-out: ATP (HepG2, galactose) IC50) was 5.37, the pIC50 (HepG2 cells [11]; read-out: ATP (HepG2, glucose) IC50) was 5.54 and the pIC50 (rat primary hepatocytes [12]) was 6.46. For the same molecule, the “LEC LUM: lowest effect concentration for luminescence, a measure of nematode ATP content” value [13] was 5 µM, the Parkin recruitment [14] was “Active” and the “Parkin translocation into mitochondria (in words)” value [14] was “significantly increased Parkin translocation into mitochondria”.
